In patent US20250221953A1 (The University of Chicago, priority 2022, published 2025):

Assays:
Mouse T cell = test: Second screen: IL-2 level of murine primary T cells; format: cell-based
Text: Two preliminary screens were designed and performed.

[1] = tested on: tumor-infiltrating CD8^+ T cells
Procedure: After incubation at 37° C. for 25 min on a shaking platform, the digested tumor tissues were transferred into a 70 μm mesh nylon strainer on a 50 mL conical tube, pushed through the strainer using the rubber end of a syringe plunger, and rinsed with the recommended medium. After centrifugation at 300×g for 10 min at room temperature with the brake on low, the resulting cell pellets were added 10 mL of ammonium chloride solution for incubation at room temperature for 5 minutes, followed by centrifugation at 300×g for 10 minutes at room temperature with the brake on low.
Freshly excised mouse tumor tissues were minced into small pieces (volume smaller than 1 mm^3) by scissors in PBS, digested by Collagenase IV (1 mg/mL) and DNase I (200 U/mL) at 37° C. for 20 minutes in PBS with gentle rocking. The digested tumor tissues were added 5 times volume 0.01M EDTA, filtered into new tube through 200 mesh screen (100 μm strainer), and then centrifuged at 300×g for 5 minutes at room temperature. The resulting cell pellets were re-suspended with 3 mL PBS, laid gently on 3 mL lymphocytes isolation liquid (pre-warmed to room temperature), and subjected to density gradient centrifugation (300×g, 30 minutes, room temperature, accelerate 6, decelerate 2). The middle layer of cells was moved carefully to a new tube, added PBS to 15 mL, and centrifuged (300×g, 10 minutes, room temperature). The cell pellets (lyse red cells if necessary) were designated tumor-infiltrating lymphocytes and used for following experiments.
Mouse spleens were disrupted with syringe plunger in 1 mL PBS in a 40 μm strainer filtered to a 15 mL tube, washed with PBS and centrifuged at 300×g for 5 minutes. The resulting cell pellets were re-suspended the with 2 mL red cell lysis buffer (Invitrogen), incubated at room temperature for 10 minutes, and centrifuged at 300×g for 5 minutes after adding 13 mL PBS. The resulting cell pellets was designated splenocytes and used for following experiments.
Draining lymph nodes were disrupted with syringe plunger in 1 mL PBS in a 40 μm strainer filtered to a 15 mL tube, washed with PBS, and centrifuged at 300×g for 5 minutes. The resulting cell pellets was designated LN Lymphocytes and used for following experiments.
Mouse primary cells isolated from tumor, spleen, draining lymph node were stained with fluorescent antibodies and analyzed by flow cytometry.
For experiments with live/dead criteria, cells were first stained with Fixable Viability Dyes (FVD) (Thermo Fisher Scientific) according to the manufacturer's instructions. Subsequent surface marker staining was performed in Flow Cytometry Staining Buffer (Thermo Fisher Scientific). Intracellular staining for flow panels containing nuclear proteins was performed using the eBioscience FoxP3/Transcription Factor Staining Buffer Set (Thermo Fisher Scientific) according to the manufacturer's instructions. For intracellular staining of cytoplasmic proteins, the Fixation/Permeabilization Solution Kit (BD Biosciences) was used according to the manufacturer's instructions.
For phospho antibody staining, cells were incubated with FVD (cell viability dye) for 15 minutes at room temperature in a tube, re-suspended with 200 μL pre-warmed 1×BD Phosflow Lyse/Fix buffer directly into the tube, and incubated at 37° C. for 10-15 minutes, followed by centrifugation at 300×g for 5 minutes. The resulting cell pellets were washed once with FACS buffer, permeabilized with 200 μL of BD Phosflow Perm Buffer III for 45 minutes on ice, and centrifuged at 300×g for 5 minutes.

[2] = tested on: human T cell and CD8^+ T cell treated with rhPD-L1; test: rhPD-L1 exhaustion assay of human T cells and CD8+ T cells; format: cell-based; details: 20 μM TVA; 0.5 μg/mL rhPD-L1, 72 hours; IL-2, TNF-α

For `CCCCCC/C=C/CCCCCCCCCC(=O)O` [TVA, trans-vaccenic acid], the “Mouse T cell IL-2 level changes after treatment” value (Mouse T cell) was 183.5%, the “IL-2 production from mouse primary T cells” value (Mouse T cell; 20 μM TVA (FIG. 17A)) was “enhances IL-2 production” and the “p-CREB and p-STAT1 levels in tumor-infiltrating CD8+ T cells” value ([1]; B16F10 tumors from syngeneic mice fed on TVA) was “Increased p-CREB and p-STAT1 levels”. For the same compound, the “CD4+ T cell population in TILs” value ([1]; TVA diet, B16F10 tumors) was “not altered”, the “tumor-infiltrating populations of neutrophils and monocytes” value ([1]; TVA diet, B16F10 tumors) was “markedly increases tumor-infiltrating populations of neutrophils and monocytes” and the “conventional CD4+ T cell or CD4+Foxp3+ Treg cell populations” value ([1]; TVA diet, spleens, dLNs and tumors of B16F10 tumor-bearing mice) was “has no effects on conventional CD4^+ T cell”. The “cytokine expression in tumor-infiltrating CD8+ T cells” value ([1]; dietary TVA, B16F10 tumors) was “increased expression levels of cytokines including IL-2, TNF-α, and IFN-γ”, the “exhaustion of CD8+ T cells (PD-1 and LAG-3 expression)” value ([1]; dietary TVA, tumors and spleens, not dLNs) was “reduces exhaustion of CD8^+ T cells in tumors and spleens” and the “CD8+ T cell population in tumor-infiltrating lymphocytes (TILs)” value ([1]; enriched diet, B16F10 tumors) was “increased CD8^+ T cell population”. For the same compound, the “exhaustion of primary human bulk T cells and CD8+ T cells treated with recombinant PD-L1” value [2] was “significantly reverses exhaustion”.
